Like-named read-outs stand apart in the source and are kept apart here.
How the values were obtained:
[1] = in vitro adsorption of various antibiotics onto activated charcoal; type: physicochemical; details: PBS pH 6, 37° C.
Protocol: (15 ml polypropylene tube, slow rotation 20 rpm), • sampling at 0.5 h, 1 h and 2 h, • Residual antibiotic dosage (i.e., not adsorbed) was determined by UV/visible spectrophotometric analysis.

[2] = In vitro adsorption kinetics of SN-38 onto activated charcoal; type: physicochemical; details: activated charcoal/SN-38 ratio of 10:1, 50 μg/mL in 0.01 M NaOH pH 12
Protocol: SN-38 was dissolved at a concentration of 50 μg/mL in 0.01 M NaOH pH 12. Non adsorbed SN-38 was detected after centrifugation and filtration by at its absorbance at 411 nm using a spectrophotometer.

topoisomerase I = target: T1, topoisomerase I (Homo sapiens, UniProt P11387); details: in vitro; cited from earlier work
T1 sequence (P11387 1-765): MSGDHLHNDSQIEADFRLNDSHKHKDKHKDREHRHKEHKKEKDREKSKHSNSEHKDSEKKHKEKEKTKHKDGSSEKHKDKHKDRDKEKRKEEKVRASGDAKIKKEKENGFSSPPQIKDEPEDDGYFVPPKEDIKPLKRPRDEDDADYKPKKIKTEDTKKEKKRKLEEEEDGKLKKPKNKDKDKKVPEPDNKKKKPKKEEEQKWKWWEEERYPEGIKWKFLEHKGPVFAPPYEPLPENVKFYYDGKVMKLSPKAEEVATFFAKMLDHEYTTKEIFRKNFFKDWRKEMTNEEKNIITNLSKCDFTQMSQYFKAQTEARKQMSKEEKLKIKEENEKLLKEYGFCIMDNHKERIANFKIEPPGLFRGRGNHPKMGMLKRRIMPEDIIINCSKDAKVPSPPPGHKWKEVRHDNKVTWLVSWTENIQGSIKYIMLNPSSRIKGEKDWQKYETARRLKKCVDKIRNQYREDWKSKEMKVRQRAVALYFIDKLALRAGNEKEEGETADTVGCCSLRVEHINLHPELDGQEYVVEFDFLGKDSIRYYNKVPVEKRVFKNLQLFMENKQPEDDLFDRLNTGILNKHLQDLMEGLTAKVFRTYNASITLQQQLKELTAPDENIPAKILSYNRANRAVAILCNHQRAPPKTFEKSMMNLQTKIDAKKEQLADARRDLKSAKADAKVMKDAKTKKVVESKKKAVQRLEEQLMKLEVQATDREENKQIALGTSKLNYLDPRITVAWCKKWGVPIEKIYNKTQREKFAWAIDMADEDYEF

[3] = 10:1 ratio of activated charcoal/irinotecan, 200 μg/mL, simulated ileal medium pH 7.5
From the text: Samples were centrifuged, filtered, and diluted ten-fold, prior to determination of the non-adsorbed concentration of irinotecan by measuring its absorbance at 368 nm using a spectrophotometer.

[4] = Kinetics of ciprofloxacin adsorption by activated charcoal measured by microbiological assay; details: ciprofloxacin 50 μg/ml, 150 μg/ml activated charcoal, pH 6.0
Protocol: The microbiological assay consists in measuring the biological activity of an antibiotic, i.e. its capacity to inhibit the growth of an indicator bacterial strain. […] 20 μl samples containing the antibiotic to be measured were spotted onto paper discs applied directly onto the surface of the agar plates. After 18 h incubation at 37° C., the diameters of the zones around the paper discs where bacterial growth had been inhibited by the presence of the antibiotic were measured.

[5] = start 3/1, extra charcoal: 6/1 after 1 h and 9/1 after 2 h
[6] = start 10/1, extra charcoal: 20/1 after 1 h and 30/1 after 2 h

Compound | Residual antibiotic after 2 h (*) [1, 5] | Residual antibiotic after 2 h (*) [1, 6] | also measured
CC[C@H]1OC(=O)C[C@@H](O)[C@H](C)[C@@H](O[C@@H]2O[C@H](C)[C@@H](O[C@H]3C[C@@](C)(O)[C@@H](O)[C@H](C)O3)[C@H](N(C)C)[C@H]2O)[C@@H](CC=O)C[C@@H](C)C(=O)/C=C/C(C)=C/[C@@H]1CO[C@@H]1O[C@H](C)[C@@H](O)[C@@H](OC)[C@H]1OC [Tylosine] | <3% | <3% | 
CN(C)c1cc(NC(=O)CNC(C)(C)C)c(O)c2c1C[C@H]1C[C@H]3[C@H](N(C)C)C(O)=C(C(N)=O)C(=O)[C@@]3(O)C(O)=C1C2=O [Tigecycline] | 21% |  | 
C[C@]1(Cn2ccnn2)[C@H](C(=O)O)N2C(=O)C[C@H]2S1(=O)=O [Tazobactam] | <20% |  | 
CN[C@H](CC(C)C)C(=O)N[C@H]1C(=O)N[C@@H](CC(N)=O)C(=O)N[C@H]2C(=O)N[C@H]3C(=O)N[C@H](C(=O)N[C@H](C(=O)O)c4cc(O)cc(O)c4-c4cc3ccc4O)[C@H](O)c3ccc(c(Cl)c3)Oc3cc2cc(c3O[C@@H]2O[C@H](CO)[C@@H](O)[C@H](O)[C@H]2O[C@H]2C[C@](C)(N)[C@H](O)[C@H](C)O2)Oc2ccc(cc2Cl)[C@H]1O [Vancomycin] | 27% | <1.25% | 
CCc1c2c(nc3ccc(O)cc13)-c1cc3c(c(=O)n1C2)COC(=O)[C@]3(O)CC [SN-38, 7-ethyl-10-hydroxycamptothecin] |  |  | time to complete adsorption [2]: ~30 min; antineoplastic activity relative to the prodrug form (Irinotecan) (topoisomerase I): 1000 fold
O=C(O)[C@H]1/C(=C/CO)O[C@@H]2CC(=O)N21 [Clavulanate] | 22% | 3.5% | 
CCc1c2c(nc3ccc(OC(=O)N4CCC(N5CCCCC5)CC4)cc13)-c1cc3c(c(=O)n1C2)COC(=O)[C@]3(O)CC [irinotecan, Irinotecan] |  |  | time to complete adsorption [3]: about 15 minutes
O=C(O)c1cn(C2CC2)c2cc(N3CCNCC3)c(F)cc2c1=O [Ciprofloxacine] |  |  | antibiotic adsorbed by the charcoal ([4]; time zero sample = approximately one minute of contact): ~70%; antibiotic adsorbed onto the charcoal ([4]; within one hour): Almost all of the antibiotic was adsorbed

— US11202761B2, “Formulations for oral delivery of adsorbents in the gut” (Da Volterra, priority 2010, dated 2021)
